According to ChEMBL document CHEMBL1765090, “Design and evaluation of fragment-like estrogen receptor tetrahydroisoquinoline ligands from a scaffold-detection approach” (J Med Chem, 2011):

Experiments:
Estrogen receptor [1] = molecular target: T1, Estrogen receptor (Homo sapiens, UniProt P03372)
T1 sequence (P03372 whole entry): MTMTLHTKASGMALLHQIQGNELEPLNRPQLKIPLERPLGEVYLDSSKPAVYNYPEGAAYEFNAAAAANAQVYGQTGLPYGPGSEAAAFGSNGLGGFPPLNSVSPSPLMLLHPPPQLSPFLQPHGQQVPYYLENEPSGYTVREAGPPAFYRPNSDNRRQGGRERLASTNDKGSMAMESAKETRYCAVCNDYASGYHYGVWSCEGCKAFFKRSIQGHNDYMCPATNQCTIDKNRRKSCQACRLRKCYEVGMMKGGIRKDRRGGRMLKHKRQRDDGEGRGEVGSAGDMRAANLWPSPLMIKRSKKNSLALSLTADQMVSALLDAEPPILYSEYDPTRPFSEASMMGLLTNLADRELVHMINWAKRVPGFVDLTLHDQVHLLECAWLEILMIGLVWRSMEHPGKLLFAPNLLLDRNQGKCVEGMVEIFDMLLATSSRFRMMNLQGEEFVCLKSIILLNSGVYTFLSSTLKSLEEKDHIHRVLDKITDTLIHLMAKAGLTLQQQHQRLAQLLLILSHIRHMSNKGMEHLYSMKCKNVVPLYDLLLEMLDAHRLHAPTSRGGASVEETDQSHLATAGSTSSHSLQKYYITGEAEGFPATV
Description: (§1) Agonist activity at human N-terminal His6-tagged ERalpha receptor LBD expressed in Escherichia coli BL21 (DE3) assessed as induction of SRC1 peptide recruitment after 1 hr by fluorescence polarization assay

Estrogen receptor [2] = molecular target: T1, Estrogen receptor; remark: listed apart in the source
Description: as §1

Estrogen receptor beta [3] = molecular target: T2, Estrogen receptor beta (Homo sapiens, UniProt Q92731)
Description: (§2) Agonist activity at human N-terminal His6-tagged ERbeta receptor LBD expressed in Escherichia coli BL21 (DE3) assessed as induction of SRC1 peptide recruitment after 1 hr by fluorescence polarization assay

Estrogen receptor beta [4] = molecular target: T2, Estrogen receptor beta; remark: listed apart in the source
Description: as §2

[5] = molecular target: T3, Estrogen receptor (Homo sapiens) (UniProt P03372); experiment: Transcriptional activation of human ERalpha receptor transfected in human U2OS cells assessed as increase of luciferase activity by estrogen response element-luciferase reporter gene assay relative to control; format: cell-based
T3 sequence (whole entry): T1 sequence (P03372 whole entry)

Estrogen receptor beta [6] = molecular target: T2, Estrogen receptor beta; experiment: Transcriptional activation of human ERbeta receptor transfected in human U2OS cells assessed as increase of luciferase activity by estrogen response element-luciferase reporter gene assay relative to control; format: cell-based
Estrogen receptor [7] = molecular target: T1, Estrogen receptor; experiment: Transcriptional activation of human ERalpha receptor transfected in human U2OS cells assessed as increase of luciferase activity by estrogen response element-luciferase reporter gene assay; format: cell-based
Estrogen receptor beta [8] = molecular target: T2, Estrogen receptor beta; experiment: Transcriptional activation of human ERbeta receptor transfected in human U2OS cells assessed as increase of luciferase activity by estrogen response element-luciferase reporter gene assay; format: cell-based

T2 sequence (Q92731 whole entry): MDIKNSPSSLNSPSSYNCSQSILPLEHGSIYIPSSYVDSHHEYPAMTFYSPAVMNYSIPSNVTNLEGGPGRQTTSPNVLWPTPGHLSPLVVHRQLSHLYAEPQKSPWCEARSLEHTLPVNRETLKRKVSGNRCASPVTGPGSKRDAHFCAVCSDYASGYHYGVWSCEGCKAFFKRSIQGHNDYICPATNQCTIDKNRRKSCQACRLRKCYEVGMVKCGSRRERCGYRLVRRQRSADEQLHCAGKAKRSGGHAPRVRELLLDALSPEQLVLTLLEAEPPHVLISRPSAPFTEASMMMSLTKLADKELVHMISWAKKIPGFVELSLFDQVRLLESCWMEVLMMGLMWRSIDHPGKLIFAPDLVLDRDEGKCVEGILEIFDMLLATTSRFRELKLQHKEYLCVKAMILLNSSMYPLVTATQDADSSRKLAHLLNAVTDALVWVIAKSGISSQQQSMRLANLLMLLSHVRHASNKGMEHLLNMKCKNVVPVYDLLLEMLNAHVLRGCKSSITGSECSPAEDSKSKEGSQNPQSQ

Row | Structure (SMILES) | EC50 (Estrogen receptor [2]) | EC50 (Estrogen receptor beta [3]) | EC50 (Estrogen receptor [1]) | further results
1 | Br.Oc1cc2c(cc1O)CNCC2 | – | – | Not Active | –
2 | Br.Oc1ccc2c(c1)CNCC2 | – | – | Not Active | –
3 | CC(=O)N1CCc2cc(O)ccc2C1 | – | – | Not Active | EC50 (Estrogen receptor beta [4]): Not Active
4 | O=C(N1CCc2ccccc2C1)C(F)(F)F | – | – | Not Active | EC50 (Estrogen receptor beta [4]): Not Active
5 | O=C(N1CCc2cc(O)ccc2C1)C(F)(F)F | 5.2 µM | 0.9 µM | – | –
6 | CC(=O)N1CCc2ccccc2C1 | – | – | Not Active | EC50 (Estrogen receptor beta [4]): Not Active
7 | Br.Oc1ccc2c(c1)CCNC2 | – | – | Not Active | –
8 | CS(=O)(=O)N1CCc2ccccc2C1 | – | – | Not Active | EC50 (Estrogen receptor beta [4]): Not Active

More lines, main results first:

Row | EC50 (Estrogen receptor [2]) | EC50 (Estrogen receptor beta [3]) | Structure (SMILES) | EC50 (Estrogen receptor [1]) | further results
9 | 20 µM | 3.8 µM | O=C(N1CCc2ccc(O)cc2C1)C(F)(F)F | – | –
10 | 700 µM | 60 µM | O=S(=O)(c1cccc2ccccc12)N1CCc2cc(O)ccc2C1 | – | –
11 | – | 1.1 µM | CC(C)(C)OC(=O)N1CCc2cc(O)ccc2C1 | – | –
12 | 340 µM | 227 µM | COc1ccc2c(c1)CCN(C(=O)C(F)(F)F)C2 | – | –
13 | 170 µM | 20 µM | CS(=O)(=O)N1CCc2cc(O)ccc2C1 | – | –
14 | 3 µM | 0.6 µM | O=S(=O)(N1CCc2cc(O)ccc2C1)C(F)(F)F | – | fold change (FC) [5]: 33; fold change (FC) (Estrogen receptor beta [6]): 7; EC50 (Estrogen receptor [7]): 1.87 µM; EC50 (Estrogen receptor beta [8]): 0.31 µM
15 | – | 1 µM | O=S(=O)(c1ccccc1)N1CCc2cc(O)ccc2C1 | – | –
16 | 600 µM | 30 µM | O=S(=O)(c1cccc2ccccc12)N1CCc2ccc(O)cc2C1 | – | –
17 | 6.2 µM | 3.2 µM | O=C(N1CCc2cc(O)ccc2C1)C(Cl)(Cl)Cl | – | –
18 | 2.3 µM | 1.6 µM | O=C(N1CCc2cc(O)ccc2C1)C(F)(F)Cl | – | –
